The nature of series [1]: two-compartment pharmacokinetics model estimation, rat models. To be noted: for σ scaling factor of infusion rate: rat two-compartment model; for K12 rate constant: rat two-compartment model fit to Vijn and Sneyd BSR time courses after 10-second bolus (8 mg kg^−1 propofol, 3.5 mg kg^−1 etomidate). Also noted: species or system rats. The source says: In one clinical application, the control target may be to achieve and maintain a target BSR corresponding to medical coma, thereby maintaining an equilibrium effect-site concentration. To design a suitable but not overly-complex model, it may be assumed that, due to the time lag between central compartment drug infusion and effect-site concentration increase, there must be at least two compartments to accurately model the evolution of the drug concentrations. Such a simplified two-compartment model is composed of the central plasma compartment and the auxiliary effect-site compartment connected by a first-order transfer process, ignoring any other peripheral drug distribution compartments.
The pharmacokinetic model in FIG. 9A can be described by the second-order linear differential equation system: […]
for an infusion rate of ut, in units of μg/s, scaled by a factor of σ. The kinetic rate constants k12 and k21 govern the drug flow between compartments, while the rate constant k10 determines the rate of the drug's clearance from the central compartment. The slow peripheral compartment and fast peripheral compartment, common in many population models, are not included.
These estimated parameters were used to design the closed-loop controller (see below) in order to yield a critically damped system response, that is, the fastest rise times without overshoot.
For the human models, existing population pharmacokinetic models were calibrated for a 180-cm, 70-kg person. […] Since a patient may not enter a state of burst suppression the instant the effect-site concentration is nonzero, the concentration trace was shifted negatively and transformed to pt such that the patient peaked at a BSP of 0.7, and came out of burst suppression 7 minutes after the initiation of the dose. […] Anesthesiology 65: 19-27, which is incorporated herein by reference, was used to numerically evaluate the effect-site concentration during and after a 10-second bolus of […].
Matlab's Optimization Toolbox was used to optimize these four parameters of the pharmacokinetic model to minimize this mean squared error, and yield an estimate of the best-fit rate constants and scaling factor.

The test system of series [2] is dopaminergic arousal pathway. Conditions: cited from earlier work.
The test system of series [3] is burst suppression. Description: physostigmine effect on stable burst suppression, rat EEG. Conditions: rat deeply anesthetized with 2% isoflurane. The series is classed as in vivo, Sprague-Dawley rat. The source says:
The following description is with respect to an analysis of a rat under general anesthesia-induced burst suppression The BSP is compared to the BSR in order to illustrate its benefits. For the experiments described herein, signals were first band pass filtered between 5 and 30 Hz. The filtered signals were thresholded and suppression segments less than 500 milliseconds in duration were switched to 1. The binary series was then provided as an input to the BSP algorithm.
The BSP algorithm was evaluated on a rat EEG signal recorded to test whether physostigmine, a cholinergic agonist hypothesized to increase arousal, causes the burst suppression pattern observed during deep anesthesia to switch into continuous activity (associated with increased arousal). In this experiment, it is advantageous to know whether physostigmine, and not saline (control), induces a shift from burst suppression (deep anesthesia) to a delta wave pattern (lighter anesthesia). In case it does, it is desirable characterize the temporal dynamics of that change.
A rat pre-implanted with extradural EEG electrodes was deeply anesthetized with 2% isoflurane. After stabilization of the inhaled concentration, the EEG signal, was recorded for 10 minutes prior to a saline intravenous injection (control). Six minutes later, physostigmine was injected and the recording was maintained for an additional thirty minutes. […]

In series [4] the test system is burst suppression. To be noted: patient after propofol bolus induction. The text has this:
Typically, in the operating room, a bolus dose of an anesthetic is rapidly administered to induce general anesthesia. It is often the case that the patient enters burst suppression within seconds and might remain in that state for several minutes. Since the efficiency of the drug depends on several empirical factors, it is relevant to monitor the level of suppression that is reached and its trajectory, which may help detect any anomaly, or tune the subsequent doses or levels of anesthesia.
The EEG was recorded from a scalp electrode at the FP1 site referenced to the FZ electrode of the standard electrode configuration. […] The choice of Δ=250 corresponds to a resolution of one second as in the previous case.

Where [5] appears, read: rat two-compartment model fit to Vijn and Sneyd BSR time courses after 10-second bolus.

Each structure is given as a SMILES string.

From the text for alpha (8-13 Hz) power: 14 patients were implanted with iEEG electrode arrays as part of standard clinical treatment for intractable epilepsy. The arrays included linear penetrating depth arrays having 6-8 electrodes, subdural grid arrays having 16-64 electrodes, and/or subdural strip arrays having 4-16 electrodes (Adtech Medical, Racine, Wis.) (FIG. 21). Surface EEG electrodes were additionally applied to six patients in a subset of the standard 10-20 EEG configuration. Electrode placement was selected by the patients' clinicians without regard to the current study. […] Recordings were obtained during electrode explant surgery that occurred after 1-3 weeks of inpatient monitoring to determine epileptogenic foci. Signal acquisition began prior to induction of general anesthesia and continued until the electrodes were disconnected for explant. EEG and iEEG signals were recorded with a sampling rate of a 2000, 500, or 250 Hz depending on settings of the hospital's clinical acquisition system. Signals were digitized with hardware amplifiers (XLTEK, Natus Medical, Inc., San Carlos, Calif.) that bandpassed between 0.3 Hz and the sampling rate, and were stored on a computer (Dell) for offline processing.
Drug protocols were selected by the patients' clinicians without regard to the current study.
Patients were delivered auditory stimuli through headphones (prerecorded words and the patient's name) approximately every 4 seconds during the task, and were instructed to respond with a button click. Responses were recorded using stimulus presentation software (Presentation, Neurobehavioral Systems, Inc., Albany, Calif., or EPrime, Psychology Software Tools, Inc., Sharpsburg, Pa.). […] This patient was excluded from group analyses of peri-LOC dynamics.
In each subject, two epochs were distinguished over the recording period. […] We used visual inspection to identify the postinduction epoch. […] Burst suppression intervals were excluded to avoid the confound of low-power suppression intervals in group analyses, which differed in total time across patients. […]

Turning to `CCOC(=O)c1cncn1[C@H](C)c1ccccc1` [Etomidate], in series [1], the “σ scaling factor of infusion rate” value was 0.8394 and the K12 rate constant was 0.01547 min⁻¹. The K21 rate constant in series [1] (setting [5]) is 0.6703 min⁻¹.

`COC(=O)C(c1ccccc1)C1CCCCN1` (centres unmarked) [methylphenidate]: the “emergence from general anesthesia” value in series [2] (isoflurane general anesthesia) was “actively induces emergence from isoflurane general anesthesia”. Besides, in series [2] (plethysmography and blood gas experiments), the minute ventilation entry is reported as “increases minute ventilation”.

Consider `CNC(=O)Oc1ccc2c(c1)[C@]1(C)CCN(C)[C@@H]1N2C` [physostigmine], for which, in the series on burst suppression [3], the “time out of suppression after injection” value was “around 10 minutes”. The same compound yielded a BSP after injection in the series with burst suppression [3] (baseline BSP around 0.5) of 0.

For the compound `CC(C)c1cccc(C(C)C)c1O` [Propofol, 2,6-di-isopropylphenol], in series [1], the “σ scaling factor of infusion rate” value is 0.5885 and the K12 rate constant is 0.01557 min⁻¹. In series [1] (setting [5]), the “K10 rate constant (clearance from central compartment)” value is 4.552 min⁻¹ and the K21 rate constant was 0.9599 min⁻¹. Further, the “time after LOC to abrupt suppression of alpha power” value in the series with alpha (8-13 Hz) power (Patient 9, occipital and temporal channels) is at most 10 s. In addition, the “increase of median alpha power in the postinduction period” value with alpha (8-13 Hz) power (hippocampus, cingulate cortex, medial white matter electrodes) was “approximately 5 dB”. In addition, the “change of alpha power in the postinduction period” value with alpha (8-13 Hz) power (occipital, parietal, inferotemporal cortex and primary auditory cortex) is “consistently decreased”. In the series on burst suppression [4], the “BSP reached after slow second increase” value is given as “around 0.7”; the “BSP, binary filter estimate, at minute 2” value is “around 0.5”; the “BSP, binary filter estimate, decrease after minute 2” value is reported as “around 0.2”; the “BSP, smoother estimate, at minute 2” value is reported as about 0.6. In the series with burst suppression [4], the “BSP, smoother estimate, decrease after minute 2” value is reported as about 0.1 and the “duration of burst suppression” value was “about 8 minutes”.

The record behind these values is US20190374158A1, “SYSTEM AND METHOD FOR MONITORING AND CONTROLLING A STATE OF A PATIENT DURING AND AFTER ADMINISTRATION OF […]” (The General Hospital Corporation, priority 2012, published 2019).
